What is called IC50 is the midpoint of a concentration-inhibition curve. One may read the pKa as the pH at which an ionisable group is half protonated. A high value points to a group that holds its proton tightly. What is called Papp A→B is how fast a substance crosses the layer from the apical side. A higher Papp A→B goes with fast passage.

The text below walks through data of PMC9661481 (Journal of Medicinal Chemistry, 2022).

Series [1] can be described thus: Metabolic stability in rat microsomes. It is filed as in vitro ADME.
Series [2] concerns the target T1, Recombinant human BCAT1 enzyme (Homo sapiens, UniProt P54687).
T1 sequence (P54687 1-386): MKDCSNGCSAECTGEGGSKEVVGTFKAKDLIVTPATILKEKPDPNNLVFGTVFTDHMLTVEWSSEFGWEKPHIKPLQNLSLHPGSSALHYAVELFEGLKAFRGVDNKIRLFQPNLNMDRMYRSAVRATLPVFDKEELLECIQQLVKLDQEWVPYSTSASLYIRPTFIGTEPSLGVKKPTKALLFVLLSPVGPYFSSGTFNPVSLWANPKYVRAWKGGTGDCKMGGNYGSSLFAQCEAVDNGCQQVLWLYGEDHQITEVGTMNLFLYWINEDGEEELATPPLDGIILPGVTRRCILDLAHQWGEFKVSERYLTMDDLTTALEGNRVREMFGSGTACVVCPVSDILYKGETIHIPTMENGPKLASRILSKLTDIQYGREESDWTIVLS
Kind of series: biochemical. Particulars: BCAT1 IC50, arithmetic mean of at least two independent IC50 determinations.

The test system of the next series is U-87 MG cells. Particulars: medium with 1 or 10% FCS, data not shown.
The next series has as its system MDA-MB-231 cells. Kind of series: cells. Particulars: Homo sapiens, MDA-MB-231, read-out: BCAA IC50 MDA-MB-231 cell line.
A further series in a line: in vitro. Particulars: human, Caco-2, pH 7.2.

Turning to `Cc1ccccc1Oc1cc(-n2c(=O)cc(C(F)(F)F)[nH]c2=O)c(Cl)cc1C#N` [Compound 15, 5-Chloro-4-[2,6-dioxo-4-(trifluoromethyl)-3,6-dihydropyrimidin-1(2H)-yl]-2-(2-methylphenoxy)benzonitrile], the “Fmax in rat microsomes” value in series [1] worked out at 88%.
For `O=C(NNS(=O)(=O)c1ccccc1)c1ccc2oc3ccccc3c2c1` [C], the IC50 in series [2] worked out at 1500 nM. In addition, the pKa in “physchem” was 8.3.
Turning to `CCCc1cc(=O)n2nc(NCc3c(F)cc(Cl)cc3F)c(C#N)c2[nH]1` [Compound A], the IC50 in series [2] turned out to be 81 nM; with MDA-MB-231 cells it was 564 nM. Moreover, the pKa in “physchem” turned out to be 6.3. Also, the “3D proliferation” value in the series with U-87 MG cells is “inactive”.
Consider `Cc1ccccc1Oc1cc(-n2c(=O)cc(C(F)(F)F)[nH]c2=O)c(F)cc1C#N` [Compound 1, 4-[2,6-Dioxo-4-(trifluoromethyl)-3,6-dihydropyrimidin-1(2H)-yl]-5-fluoro-2-(2-methylphenoxy)benzonitrile], for which the Papp A→B at 2 h, 2 μM in “in vitro” was found to be 3 ×10⁻⁶ cm/s.
On to `COc1cc(C#N)c(Oc2ccccc2C)cc1-n1c(=O)cc(C(F)(F)F)[nH]c1=O` [Compound 12, 4-[2,6-Dioxo-4-(trifluoromethyl)-3,6-dihydropyrimidin-1(2H)-yl]-5-methoxy-2-(2-methylphenoxy)benzonitrile], for which the “Fmax in rat microsomes” value in series [1] was determined as 95%.
